From patent US11744815B1, “Pharmaceutical composition of dimethylguanidino valeric acid and plant flavonoids for treating chronic inflammatory diseases and cancer” (priority 2022, dated 2023)
“Also recorded” adds a separate entry of the source.

Legend:
AGXT2^−/− T cells = test: ROS induction in AGXT2-KO T cells; assay type: cell-based, mice; details: ADMA 10 μM, SDMA 10 μM, DMGV (504)
Protocol: DMGV is converted from asymmetric dimethylarginine (ADMA) or symmetric dimethylarginine (SDMA) by alanine-glyoxylate aminotransferase 2 (AGXT2) in the mitochondria whereas ADMA or SDMA is metabolized to L-citrulline in the cytosol as shown in FIG. 6A. In order to investigate the role of DMGV in T cells, we generated AGXT2-KO (AGXT2^−/−) mice using Crispr/Cas9 technology according to FIG. 6B. Neither ADMA (10 μM) or SDMA (10 μM) induce ROS in AGXT2^−/− T cells but DMGV (504) still does, an evidence that SDMA or ADMA induces ROS only when they are converted to DMGV (FIG. 6C).

human T cells [1] = test: Human T cell survival by flow cytometry after 4 days; assay type: cell-based
Jurkat T cells = test: Mitochondrial ROS by flow cytometry using CellROX Green, Jurkat T cells; assay type: cell-based, human; details: for induction of ROS: kaempferol 5 μM, quercetin 25 μM, daidzein 5 μM
Protocol: (§1) The invention further investigated how DMGV suppresses cell proliferation and survival.
In order to locate the cellular compartment of ROS generated by DMGV, Jurkat T cells were incubated with the mitochondria-specific ROS inhibitor MitoQ (100 nM) for 15 min before stimulation with DMGV (504) for ROS measurement.
(§2) As certain flavonoids are known to active MCU, we tested whether DMGV and the flavonoids activate MCU in the same manner. Jurkat T cells were treated with the flavonoids [kaempferol (5 μM), quercetin (25 μM), or daidzein (5 μM)]. […] The molecular docking simulator SwissDock predicted that the flavonoids and DMGV bind to MCU in a same pocket.

[2] = tested on: AGXT2^+/+ and AGXT2^−/− T cells; test: Survival of AGXT2^+/+ and AGXT2^−/− T cells, 4 days, flow cytometry; assay type: cell-based, mice
Protocol: To investigate the role of AGXT2 and DMGV in T cell survival, AGXT2^+/+ and AGXT2^−/− T cells were stimulated with the indicated compounds (ADMA: 10 μM, SDMA: 10 μM, DMGV: 504, MitoQ: 100 nM) for 4 days and the survival rate was measured by flow cytometry.

T cell = test: ROS induction and T cell proliferation with selective iNOS inhibitor; assay type: cell-based
MCU = molecular target: T1, MCU (Homo sapiens, UniProt Q8NE86); test: Mitochondrial calcium influx in Jurkat cells expressing Mito-GEM-GECO; assay type: cell-based; details: for induction of mitochondrial calcium: Jurkat T cells, kaempferol 5 μM, quercetin 25 μM, daidzein 5 μM
T1 construct: endogenous in cells; host or cells: Jurkat T cells
T1 sequence (Q8NE86 51-351): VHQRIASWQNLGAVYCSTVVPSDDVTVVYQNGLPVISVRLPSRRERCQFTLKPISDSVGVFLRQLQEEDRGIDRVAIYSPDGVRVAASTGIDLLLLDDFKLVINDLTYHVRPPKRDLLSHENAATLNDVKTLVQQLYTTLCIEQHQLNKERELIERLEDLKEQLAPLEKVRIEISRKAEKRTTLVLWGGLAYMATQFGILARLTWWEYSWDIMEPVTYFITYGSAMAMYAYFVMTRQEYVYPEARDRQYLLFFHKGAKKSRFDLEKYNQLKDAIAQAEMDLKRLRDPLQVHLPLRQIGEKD
T1 sequence (Q9H4I9 48-107 partner limits assumed): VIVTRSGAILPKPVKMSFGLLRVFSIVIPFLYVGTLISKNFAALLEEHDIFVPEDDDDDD
Protocol: (§3) As a sudden influx of calcium to the mitochondria can cause ROS induction, we tested whether DMGV regulates calcium flux to induce ROS. Calcium flux was measured by flow cytometry using the calcium indicator Fluo-8. While stimulation of T cell receptor (TCR) by a stimulatory antibody triggered calcium release from ER (efflux), which in turn induced calcium influx from the outside to cytosol (influx). […] Because of the close proximity between ER and mitochondria, calcium efflux from ER leads to calcium import to the mitochondria, which can be mediated by MCU.
as §2

[3] = tested on: MCU mutants deleted of Ile127, V135, or Ile127 and V135; test: MCU deletion mutants transfected to MCU KO cells; assay type: cell-based; details: for dependence of MCU activation on Ile127: MCU mutant deleted of Ile127 in MCU KO cells; for dependence of MCU activation on V135: MCU mutant deleted of V135 in MCU KO cells
From the text: To test whether Ile127 and V135 are important for these compounds to activate MCU, we generated 3 different MCU mutants deleted of Ile127, V135, or Ile127 and V135. These MCU mutants were transfected to MCU KO cells and stimulated with kaempferol, daidzein, quercetin, or DMGV.

calcium flux = test: Calcium flux by flow cytometry using Fluo-8; assay type: cell-based
Protocol: as §3

human T cells [4] = test: Mitochondrial ROS by flow cytometry using CellROX Green, human T cells; assay type: cell-based
From the text: as §1

activated T cells [5] = test: T cell survival by flow cytometry after 3 days; assay type: cell-based; details: stimulated with indicated amount of DMGV
Protocol: (§4) In example one, pharmaceutical composition was screened and discovered natural small molecules that inhibit T cell survival and proliferation to use as therapeutics for chronic inflammatory diseases and cancers as taught in FIG. 1, T cells were stimulated with or without the indicated amount of DMGV and survival was measured by flow cytometry after 3 days. […] Solid tumor cancer cell lines were incubated with different doses of DMGV or 5-FU (5-fluorouracil), and cells survival was measured by CCK-8 after 2 days.

[6] = tested on: THP-1 (Acute monocytic leukemia cell lines); test: Survival of hematological cancer cell line THP-1; assay type: cell-based
[7] = tested on: Jurkat (Human T lymphocytic leukemia cell lines); test: Survival of hematological cancer cell line Jurkat; assay type: cell-based
mouse T cells [8] = test: Mouse T cell survival in RPMI with or without glucose, 4 days; assay type: cell-based
Protocol: In order to test the effects of glycolysis on the DMGV function to inhibit survival, mouse T cells were activated with or without DMGV in RPMI with or without glucose for 4 days and the survival rates were measured by flow cytometry. […] Oxidative phosphorylation uses pyruvate, an end product of glycolysis, and thus a diminished glycolysis can decrease oxidative phosphorylation.

activated T cells [9] = test: Energy metabolism by Seahorse assay; assay type: cell-based, mouse
From the text: The invention tested if DMGV relied on glycolysis to suppress cell survival.

chronic colitis = test: Chronic colitis by adoptive transfer of naïve CD4+ T cells; assay type: in vivo, Rag2^−/− mice
From the text: The present invention tested if DMGV suppresses chronic T cell-mediated inflammation in two mouse models. In the first model, adoptive transfer of naïve CD4^+ T cells from syngeneic mice into immunodeficient (Rag2^−/−) mice induces chronic colitis similar to inflammatory bowel diseases (IBD) in humans, due to differentiation of T cells into pathogenic Th17 cells in the absence of regulatory T cells (Tregs). After adoptively transferring naïve CD4^+ T cells from syngeneic mice to recombinase activating gene-2-deficient (Rag2^−/−) mice to induce colitis, the mice showing the disease symptom in the form of loose stool around 4-6 weeks were randomly divided into two groups. One group (n=9) was treated with DMGV (i.p. 750 μg/mouse, twice a week) and the control group (n=11) with PBS up to 40 days and mortality was observed.

[10] = tested on: PC-3 (Human prostate cancer cell lines); test: Solid tumor cell survival by CCK-8 after 2 days, PC-3; assay type: cell-based
Protocol: as §4

[11] = tested on: K-562 (Human chronic myeloid leukemia cell lines); test: Survival of hematological cancer cell line K-562; assay type: cell-based
mouse T cells [12] = test: Mitochondrial ROS by flow cytometry using CellROX Green, mouse T cells; assay type: cell-based
From the text: as §1

[13] = tested on: HCT-8 (Human colorectal cancer cell lines); assay type: cell-based
Protocol: as §4

Jurkat cells = test: T cell leukemia model, Jurkat cells injected into tail vein of mice; assay type: in vivo, NSG/SCID mice; details: 700 μg/mouse i.p.
Protocol: The next experiment tested whether DMGV can eliminate cancer cells in vivo. […] After 2 weeks of the injection, the level of Jurkat cells in the peripheral blood reached around 60% of the total leukocytes. The model mice were injected with either PBS (Control) or DMGV (700 μg/mouse intraperitoneal injection, i.p.) for 2 weeks as shown in FIG. 3B.

autoimmune arthritis = test: Chronic autoimmune arthritis in SKG mice accelerated by laminarian; assay type: in vivo; details: i.p. 750 μg/mouse, twice a week, up to 50 days, start at score 8
From the text: In the second model, SKG mice harbor a point mutation in ZAP-70^W163C and Develop Chronic autoimmune arthritis similar to human RA due to aberrant T cell activation. The disease can be accelerated by injection of […].

[14] = tested on: HCA-7 (colorectal cancer cell lines); test: Solid tumor cell survival by CCK-8 after 2 days, HCA-7; assay type: cell-based
Protocol: as §4

[15] = tested on: HL-60 (Acute myeloid leukemia M3 cell lines); test: Survival of hematological cancer cell line HL-60; assay type: cell-based
[16] = MitoQ 100 nM with DMGV 504, 4 days

CN(C)C(N)=NCCC[C@H](N)C(=O)O [ADMA, asymmetric dimethylarginine]
ROS induction in AGXT2^−/− T cells (AGXT2^−/− T cells): do not induce ROS

COC1=C(OC)C(=O)C(CCCCCCCCCC[P+](c2ccccc2)(c2ccccc2)c2ccccc2)=C(C)C1=O [MitoQ, reference compound]
effect on DMGV-induced T cell death (human T cells [1]; human T cells, DMGV with or without MitoQ, 4 days): rescued T cells from DMGV-induced cell death
effect on DMGV-induced ROS production (Jurkat T cells; MitoQ (100 nM) 15 min before stimulation with DMGV (504)): completely inhibited ROS production
effect on DMGV-induced inhibition of AGXT2^+/+ T cells [2, 16]: rescued AGXT2^+/+ T cells from DMGV-induced inhibition
effect on DMGV-induced rescue of AGXT2^−/− T cells [2, 16]: inhibited DMGV-induced rescue of AGXT2^−/− T cells

CC(=N)NCCCC[C@H](N)C(=O)O [N6-(1-iminoethyl)-L-lysine]
ROS induction (T cell): does not induce ROS
T cell proliferation (T cell): does not induce ROS or inhibit T cell proliferation

CN=C(NC)NCCC[C@H](N)C(=O)O [SDMA, symmetric dimethylarginine]
ROS induction in AGXT2^−/− T cells (AGXT2^−/− T cells): do not induce ROS

O=c1c(-c2ccc(O)cc2)coc2cc(O)ccc12 [daidzein, 7-hydroxy-3-(4-hydroxyphenyl)-4H-chromen-4-one]
induction of mitochondrial calcium (MCU): induced mitochondrial calcium
induction of ROS (Jurkat T cells; Jurkat T cells): induced mitochondrial calcium as wells ROS
dependence of MCU activation on Ile127 [3]: independent on it
dependence of MCU activation on V135 [3]: mostly dependent on V135

O=c1c(O)c(-c2ccc(O)cc2)oc2cc(O)cc(O)c12 [kaempferol, 3,5,7-Trihydroxy-2-(4-hydroxyphenyl)-4H-chromen-4-one]
induction of mitochondrial calcium (MCU): induced mitochondrial calcium
survival of activated human T cells (human T cells [1]; activated human T cells): suppressed survival of activated human T cells via mitochondrial ROS
induction of ROS (Jurkat T cells; Jurkat T cells): induced mitochondrial calcium as wells ROS
dependence of MCU activation on Ile127 [3]: independent on it
dependence of MCU activation on V135 [3]: totally dependent on it; also recorded: mostly dependent on V135

Ru360 [reference compound]
effect on DMGV-induced calcium influx to the mitochondria (MCU; Ru360 (104)): completely inhibited
effect on TCR-induced calcium flux (calcium flux; Ru360): not affected

dimethylguanidino valeric acid [DMGV]
calcium influx to the mitochondria (MCU; Jurkat cells, Mito-GEM-GECO): induces calcium influx to the mitochondria
induction of mitochondrial ROS (human T cells [4]): rapidly induces mitochondrial ROS
survival and proliferation of activated T cells (activated T cells [5]): inhibit the survival and proliferation of activated T cells
survival of THP-1 cells [6]: suppresses survival
survival of Jurkat cells [7]: suppresses survival
T cell survival in glucose-free culture (mouse T cells [8]): no longer affected T cell survival
glycolysis (activated T cells [9]): significantly inhibited
oxidative phosphorylation (activated T cells [9]): significantly inhibited
survival (mortality) of colitis mice (chronic colitis; i.p. 750 μg/mouse, twice a week, up to 40 days, n=9): all except for one mouse survived
normalized IL-17A+ T cell number in colonic tissue (chronic colitis; survived mice, compared to the control group): significantly lower
induction of mitochondrial ROS (Jurkat T cells; Jurkat T cells): rapidly induces mitochondrial ROS
ROS induction in glucose-free medium (Jurkat T cells; Jurkat T cells in RPMI without glucose for 24 h): does not induce ROS
dependence of DMGV-induced ROS on MCU (Jurkat T cells; Ru360 or MCU KO): dependent on MCU
dependence of MCU activation on Ile127 [3]: completely; also recorded: dependent mostly on Ile127
dependence of MCU activation on V135 [3]: independent on Va1135
proliferation of PC-3 [10]: suppresses proliferation
survival of K-562 cells [11]: suppresses survival
induction of mitochondrial ROS (mouse T cells [12]): rapidly induces mitochondrial ROS
survival of AGXT2^+/+ T cells ([2]; DMGV: 504, 4 days): inhibited survival of AGXT2^+/+ T cells
survival of AGXT2^−/− T cells ([2]; DMGV: 504, 4 days): rescued AGXT2^−/− T cells
inhibition of HCT-8 proliferation compared with 5-FU [13]: inhibited proliferation of HCT-8 better than a known chemotherapeutic drug, 5-FU
proliferation of HCT-8 ([13]; CCK-8 after 2 days): suppresses proliferation
suppression of HCT-8 proliferation, 3D versus 2D culture ([13]; Matrigel (3D) vs 2-dimensional culture): much more effective in suppressing proliferation of HCT-8 cultured in Matrigel™ (3D) than 2D
Jurkat cells in the peripheral blood (Jurkat cells; after 2 weeks of treatment): completely eliminated Jurkat cells
cancer-induced death (Jurkat cells; after 4 weeks of treatment): prevented the cancer-induced death
arthritis score (autoimmune arthritis): significantly decreased the arthritis score
proliferation of HCA-7 [14]: suppresses proliferation
ROS induction in AGXT2^−/− T cells (AGXT2^−/− T cells): still does
survival of HL-60 cells [15]: suppresses survival
calcium efflux (release from ER) (calcium flux; Fluo-8): induced efflux
calcium influx from the outside to cytosol (calcium flux; Fluo-8): not influx
